The source made the active and inactive calls. The rule behind the calls is not given here.
Tests used:
[1] = biological target: T1, D(4) dopamine receptor (Homo sapiens) (UniProt P21917); experiment: Antagonist activity at dopamine D4.2 receptor assessed as inhibition of dopamine-induced effect at 5 uM; assay type: functional
T1 sequence (whole entry): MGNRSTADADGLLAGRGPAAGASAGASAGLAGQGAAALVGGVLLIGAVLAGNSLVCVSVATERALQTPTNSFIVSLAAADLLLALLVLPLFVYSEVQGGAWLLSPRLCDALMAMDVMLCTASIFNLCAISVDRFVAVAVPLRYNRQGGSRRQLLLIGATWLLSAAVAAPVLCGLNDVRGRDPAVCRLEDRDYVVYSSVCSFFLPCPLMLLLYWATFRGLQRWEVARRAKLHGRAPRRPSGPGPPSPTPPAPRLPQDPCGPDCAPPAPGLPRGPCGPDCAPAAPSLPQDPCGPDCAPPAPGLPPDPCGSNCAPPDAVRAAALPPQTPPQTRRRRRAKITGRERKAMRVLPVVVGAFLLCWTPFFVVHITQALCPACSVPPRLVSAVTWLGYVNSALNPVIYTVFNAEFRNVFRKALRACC

[2] = biological target: T2, D(4) dopamine receptor (Homo sapiens, UniProt P21917); experiment: Displacement of [3H]nemonapride from human cloned dopamine D4.2 receptor
T2 sequence (P21917 whole entry): T1 sequence (whole entry)

[3] = biological target: 5-hydroxytryptamine receptor 2A (Rattus norvegicus) (UniProt P14842); experiment: Displacement of [3H]ketanserin from rat 5HT2A receptor at 1 uM
[4] = biological target: D(2) dopamine receptor (Homo sapiens) (UniProt P14416); experiment: Displacement of [3H]spiperone from human cloned dopamine D2L receptor at 1 uM
[5] = biological target: 5-hydroxytryptamine receptor 2A (Rattus norvegicus, UniProt P14842); experiment: Displacement of [3H]ketanserin from rat 5HT2A receptor
[6] = biological target: 5-hydroxytryptamine receptor 2A (Homo sapiens) (UniProt P28223); experiment: Antagonist activity at 5HT2A assessed as inhibition of serotonin-induced effect at 5 uM; assay type: functional
[7] = biological target: T1, D(4) dopamine receptor (Homo sapiens); experiment: Displacement of [3H]nemonapride from human cloned dopamine D4.2 receptor at 1 uM

5-hydroxytryptamine receptor 2A (Homo sapiens), sequence (P28223 whole entry): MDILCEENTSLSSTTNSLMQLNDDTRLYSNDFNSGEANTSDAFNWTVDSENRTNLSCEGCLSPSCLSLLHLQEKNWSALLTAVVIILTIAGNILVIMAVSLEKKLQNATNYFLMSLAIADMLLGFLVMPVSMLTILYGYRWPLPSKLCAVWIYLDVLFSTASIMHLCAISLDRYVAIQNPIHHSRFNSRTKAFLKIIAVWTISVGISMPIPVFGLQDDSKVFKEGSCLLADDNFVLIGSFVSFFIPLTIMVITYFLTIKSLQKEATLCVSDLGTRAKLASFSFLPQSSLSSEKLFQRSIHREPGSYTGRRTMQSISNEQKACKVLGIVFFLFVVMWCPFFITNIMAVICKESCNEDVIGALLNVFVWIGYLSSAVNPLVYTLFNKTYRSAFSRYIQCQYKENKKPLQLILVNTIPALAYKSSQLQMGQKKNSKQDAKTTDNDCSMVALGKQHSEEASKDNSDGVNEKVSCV
5-hydroxytryptamine receptor 2A (Rattus norvegicus), sequence (P14842 whole entry): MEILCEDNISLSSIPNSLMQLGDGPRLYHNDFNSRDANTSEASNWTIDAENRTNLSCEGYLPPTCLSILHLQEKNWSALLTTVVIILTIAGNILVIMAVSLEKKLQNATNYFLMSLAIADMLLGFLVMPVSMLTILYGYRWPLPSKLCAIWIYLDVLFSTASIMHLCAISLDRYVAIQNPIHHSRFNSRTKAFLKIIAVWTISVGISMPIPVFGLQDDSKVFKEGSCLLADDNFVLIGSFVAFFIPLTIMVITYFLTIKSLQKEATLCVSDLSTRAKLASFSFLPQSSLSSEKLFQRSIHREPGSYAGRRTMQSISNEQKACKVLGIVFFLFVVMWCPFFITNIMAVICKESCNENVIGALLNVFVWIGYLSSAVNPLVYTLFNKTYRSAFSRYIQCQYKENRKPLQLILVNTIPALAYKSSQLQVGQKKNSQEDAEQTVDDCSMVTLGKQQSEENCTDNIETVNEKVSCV
5-hydroxytryptamine receptor 2A, sequence (P14842 whole entry): as above
D(2) dopamine receptor (Homo sapiens), sequence (P14416 whole entry): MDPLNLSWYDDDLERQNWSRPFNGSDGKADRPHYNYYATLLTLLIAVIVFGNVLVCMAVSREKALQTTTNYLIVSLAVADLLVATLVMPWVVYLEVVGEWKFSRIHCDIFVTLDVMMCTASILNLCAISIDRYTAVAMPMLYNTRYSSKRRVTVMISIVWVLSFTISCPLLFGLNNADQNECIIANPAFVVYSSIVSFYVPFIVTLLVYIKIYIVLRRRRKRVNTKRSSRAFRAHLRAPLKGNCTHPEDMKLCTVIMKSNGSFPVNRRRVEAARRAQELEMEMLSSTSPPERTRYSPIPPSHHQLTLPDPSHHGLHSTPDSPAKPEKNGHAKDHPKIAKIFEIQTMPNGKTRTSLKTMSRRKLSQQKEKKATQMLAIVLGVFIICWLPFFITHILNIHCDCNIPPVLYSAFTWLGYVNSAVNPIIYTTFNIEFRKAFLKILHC

| Compound | Activity [1] | Ki [2] | inhibition [3] | inhibition [4] | Ki [5] | Activity [6] | inhibition [7] |
| --- | --- | --- | --- | --- | --- | --- | --- |
| Cc1ccccc1CN1CCC(NC(=O)c2cccc3ccccc23)CC1 | Active | 0.155 µM | 26% | 9% |  |  |  |
| O=C(NC1CCN(Cc2cccc(C(F)(F)F)c2)CC1)c1ccc2ccccc2c1 | Active | 0.103 µM | 15% | 9% |  |  |  |
| COc1ccc(CN2CCC(NC(=O)c3ccc4ccccc4c3)CC2)cc1 | Active | 0.031 µM |  | 18% | 0.151 µM | Active |  |
| O=C(NC1CCN(Cc2ccc(Br)cc2)CC1)c1ccc2ccccc2c1 | Active | 0.034 µM |  |  | 0.223 µM | Active |  |
| O=C(NC1CCN(Cc2ccc([N+](=O)[O-])cc2)CC1)c1ccc2ccccc2c1 | Active | 0.181 µM |  | 0% | 0.278 µM | Active |  |
| Cc1ccc(CN2CCC(NC(=O)c3ccc4ccccc4c3)CC2)cc1 | Active | 0.021 µM |  | 42% | 0.222 µM | Active |  |
| O=C(NC1CCN(Cc2cccc(Cl)c2)CC1)c1ccc2ccccc2c1 | Active | 0.054 µM |  | 29% | 0.133 µM | Active |  |
| O=C(NC1CCN(Cc2ccccc2Br)CC1)c1cccc2ccccc12 |  |  |  | 8% |  |  | 35% |
| COc1cccc(CN2CCC(NC(=O)c3cccc4ccccc34)CC2)c1 | Active | 0.168 µM | 23% | 0% |  |  |  |
| O=C(NC1CCN(Cc2ccccc2Br)CC1)c1ccc2ccccc2c1 |  |  | 47% | 0% |  |  | 31% |
| O=C(NC1CCN(Cc2cccc(Br)c2)CC1)c1ccc2ccccc2c1 | Active | 0.036 µM |  |  | 0.053 µM | Active |  |
| O=C(NC1CCN(Cc2c(F)c(F)c(F)c(F)c2F)CC1)c1cccc2ccccc12 |  |  |  | 0% | 0.228 µM |  | 0% |
| O=C(NC1CCN(Cc2ccncc2)CC1)c1ccc2ccccc2c1 |  |  |  | 5% | 0.695 µM |  | 32% |
| Cc1cccc(CN2CCC(NC(=O)c3cccc4ccccc34)CC2)c1 | Active | 0.077 µM | 38% | 11% |  |  |  |
| O=C(NC1CCN(Cc2ccc(Cl)cc2)CC1)c1cccc2ccccc12 | Active | 0.043 µM | 23% | 0% |  |  |  |
| O=C(NC1CCN(Cc2ccccn2)CC1)c1ccc2ccccc2c1 |  | 0.299 µM |  | 5% | 0.545 µM |  |  |
| O=C(NC1CCN(Cc2ccccc2Cl)CC1)c1ccc2ccccc2c1 |  |  |  | 0% | 0.133 µM | Active | 48% |
| O=C(NC1CCN(Cc2ccccc2)CC1)c1ccc2ccccc2c1 | Active |  |  |  |  | Active |  |
| COc1cccc(CN2CCC(NC(=O)c3ccc4ccccc4c3)CC2)c1 | Active | 0.016 µM |  | 0% | 0.158 µM | Active |  |
| O=C(NC1CCN(Cc2ccccc2Cl)CC1)c1cccc2ccccc12 | Active | 0.329 µM |  |  |  |  |  |
| O=C(NC1CCN(Cc2cccc(Br)c2)CC1)c1cccc2ccccc12 | Active | 0.066 µM |  |  | 0.462 µM | Active |  |

Second part, the compound after the results:

| Activity [1] | Ki [2] | inhibition [3] | inhibition [4] | Ki [5] | Activity [6] | inhibition [7] | Compound |
| --- | --- | --- | --- | --- | --- | --- | --- |
| Active | 0.116 µM | 49% | 0% |  |  |  | O=C(NC1CCN(Cc2cccc(Cl)c2)CC1)c1cccc2ccccc12 |
|  | 0.084 µM | 36% | 0% |  |  |  | O=C(NC1CCN(Cc2ccc(C(F)(F)F)cc2)CC1)c1ccc2ccccc2c1 |
| Active |  |  |  |  | Active |  | O=C(NC1CCN(Cc2ccccc2)CC1)c1cccc2ccccc12 |
| Active | 0.096 µM | 32% | 0% |  |  |  | O=C(NC1CCN(Cc2ccc(C(F)(F)F)cc2)CC1)c1cccc2ccccc12 |
| Active | 0.069 µM | 33% | 13% |  |  |  | Cc1ccc(CN2CCC(NC(=O)c3cccc4ccccc34)CC2)cc1 |
| Active | 0.011 µM |  | 20% | 0.087 µM | Active |  | Cc1cccc(CN2CCC(NC(=O)c3ccc4ccccc4c3)CC2)c1 |
| Active | 0.026 µM |  | 6% | 0.175 µM | Active |  | Cc1ccccc1CN1CCC(NC(=O)c2ccc3ccccc3c2)CC1 |
| Active | 0.223 µM |  | 3% |  |  |  | COc1ccc(CN2CCC(NC(=O)c3cccc4ccccc34)CC2)cc1 |
| Active | 0.044 µM |  | 4% |  |  |  | O=C(NC1CCN(Cc2ccc(Br)cc2)CC1)c1cccc2ccccc12 |
|  |  | 20% | 0% |  |  | 42% | O=C(NC1CCN(Cc2ccc([N+](=O)[O-])cc2)CC1)c1cccc2ccccc12 |
| Active | 0.119 µM |  | 0% |  |  |  | O=C(NC1CCN(Cc2cccc(C(F)(F)F)c2)CC1)c1cccc2ccccc12 |
|  |  | 4% | 0% |  |  | 0% | O=C(NC1CCN(Cc2c(F)c(F)c(F)c(F)c2F)CC1)c1ccc2ccccc2c1 |
| Active | 0.037 µM |  | 15% | 0.242 µM | Active |  | O=C(NC1CCN(Cc2ccc(Cl)cc2)CC1)c1ccc2ccccc2c1 |
|  | 0.326 µM |  | 4% | 0.524 µM |  |  | O=C(NC1CCN(Cc2cccnc2)CC1)c1ccc2ccccc2c1 |
